{"source": "patent US11607414B2", "about": "“Small molecule inhibitors of EGFR and PI3K” (The Regents of the University of Michigan, priority 2014, dated 2023)", "key": {"[1]": {"tested_on": "KRAS mutant HCT-116 cells", "assay": "HCT-116 cell viability / proliferation (Cell Titer Glo)", "type": "cell-based", "experimental": "Cell proliferation was determined using the Cell Titer Glo assay (Promega, Madison, Wis.). Cell lines were seeded at a density between 2,000 and 5,000 cells per well in a 96-well plate. Twenty four hours after plating, cells were dosed with varying concentrations of drug, either as a single agent or in combination. The signal for Cell Titer Glo was determined 72 or 96 hours after dosing."}, "[2]": {"tested_on": "phosphorylation of EGFR in HCT-116 tumors", "assay": "In vivo pharmacodynamics in subcutaneous HCT-116 tumors, pEGFR", "settings": "single oral dose 100 mg/kg, two hours post-dosing", "description": "However, additional synthesis of MOL-162 is needed to allow a full pharmacodynamic time course study to be carried out to determine the maximal degree of target inhibition of both targets after single and repeated daily dosing."}, "EGFR": {"target": "EGFR (Homo sapiens, UniProt P00533)", "sequence (P00533 25-1210)": "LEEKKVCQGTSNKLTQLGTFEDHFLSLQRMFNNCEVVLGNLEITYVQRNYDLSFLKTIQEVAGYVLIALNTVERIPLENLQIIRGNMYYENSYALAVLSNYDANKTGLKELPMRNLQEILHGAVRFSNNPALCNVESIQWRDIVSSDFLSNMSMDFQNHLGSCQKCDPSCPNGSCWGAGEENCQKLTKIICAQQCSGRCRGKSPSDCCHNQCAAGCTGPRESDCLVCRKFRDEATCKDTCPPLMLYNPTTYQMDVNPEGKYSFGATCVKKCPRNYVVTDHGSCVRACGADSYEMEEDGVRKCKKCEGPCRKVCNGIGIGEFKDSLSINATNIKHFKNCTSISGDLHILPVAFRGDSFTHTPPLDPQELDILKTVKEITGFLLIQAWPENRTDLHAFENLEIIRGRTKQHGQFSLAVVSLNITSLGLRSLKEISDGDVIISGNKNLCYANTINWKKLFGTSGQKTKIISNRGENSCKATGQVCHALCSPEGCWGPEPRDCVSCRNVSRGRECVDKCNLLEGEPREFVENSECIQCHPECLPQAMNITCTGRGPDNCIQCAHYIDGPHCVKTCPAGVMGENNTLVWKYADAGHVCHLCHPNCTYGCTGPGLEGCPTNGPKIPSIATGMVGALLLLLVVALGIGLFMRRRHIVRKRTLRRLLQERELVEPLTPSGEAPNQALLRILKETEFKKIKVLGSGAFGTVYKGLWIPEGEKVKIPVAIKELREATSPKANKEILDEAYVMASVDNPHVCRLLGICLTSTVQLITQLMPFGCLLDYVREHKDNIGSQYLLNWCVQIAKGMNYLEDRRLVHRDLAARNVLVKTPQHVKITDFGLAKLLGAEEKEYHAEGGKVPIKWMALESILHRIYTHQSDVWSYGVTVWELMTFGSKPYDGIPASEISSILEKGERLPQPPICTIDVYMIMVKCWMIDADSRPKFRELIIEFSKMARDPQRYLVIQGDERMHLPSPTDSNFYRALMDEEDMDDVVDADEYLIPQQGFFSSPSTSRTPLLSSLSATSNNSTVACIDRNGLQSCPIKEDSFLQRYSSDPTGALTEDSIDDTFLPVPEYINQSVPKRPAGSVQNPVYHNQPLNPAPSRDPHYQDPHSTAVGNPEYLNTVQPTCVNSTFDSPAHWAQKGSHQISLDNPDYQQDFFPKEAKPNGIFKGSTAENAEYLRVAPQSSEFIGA", "assay": "Z'-LYTE biochemical kinase assay, EGFR", "experimental": "Various compounds were tested for their ability to inhibit EGFR and PIK3CA. The assays determining inhibitions are given in Example 2 Assays-Z′-LYTE® and ADAPTA.\nAssays: The Z′-LYTE® biochemical assay employs a fluorescence-based, coupled-enzyme format and is based on the differential sensitivity of phosphorylated and non-phosphorylated peptides to proteolytic cleavage (FIG. 6). The peptide substrate is labeled with two fluorophores—one at each end— that make up a FRET pair. In the primary reaction, the kinase transfers the gamma-phosphate of ATP to a single tyrosine, serine or threonine residue in a synthetic FRET-peptide. […] A ratiometric method, which calculates the ratio (the Emission Ratio) of donor emission to acceptor emission after excitation of the donor fluorophore at 400 nm, is used to quantitate reaction progress.\nA significant benefit of this ratiometric method for quantitating reaction progress is the elimination of well-to-well variations in FRET-peptide concentration and signal intensities. […]\nBoth cleaved and uncleaved FRET-peptides contribute to the fluorescence signals and therefore to the Emission Ratio. The extent of phosphorylation of the FRET-peptide can be calculated from the Emission Ratio. […]\nBar-coded Corning, low volume NBS, black 384-well plate (Corning Cat. 4514) 1. […] Read on fluorescence plate reader and analyze the data."}}, "data": [{"smiles": "CS(=O)(=O)Nc1cncc(-c2ccc3ncnc(Nc4cccc(Cl)c4)c3c2)c1", "note": "[MOL-162, N-(5-(4-((3-chlorophenyl)amino)quinazolin-6-yl)pyridin-3-yl)methanesulfonamide]", "values": [{"measurement": "cytotoxicity", "setting": "[1]", "result": "cytotoxicity"}, {"measurement": "phosphorylation of EGFR in tumors", "setting": "[2]", "result": "completely suppressed"}, {"measurement": "inhibition of / potency against purified EGFR (in words)", "setting": "EGFR", "result": "potent dual inhibition"}]}]}
